Reference: ChEMBL document CHEMBL1201862, “PubChem BioAssay data set” (2004)
Calls of active or inactive are those of the source. For most assays here, no stated cut-off is given here; in the data, actives have a measured EC50 and inactives only a lower limit.

Assays:
[1] = NIH3T3 cell viability loss – ATP luminescence, mouse fibroblasts, counter-screen, dose response (AID 2010); assay type: functional, cell-based;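 further: cells exposed to compound for about 90 hours before reading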
[2] = Trypanosoma cruzi growth suppression in host cells – NIH3T3 host cells, beta-gal luminescence, confirmation (AID 2044); assay type: functional, cell-based;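 further: intracellular parasites grown in NIH/3T3 mouse fibroblasts as host cells; luminescent beta-galactosidase reporter signal from transgenic T. cruzi replicating inside host cells; inhibitors lower the luminescence signal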
[3] = NIH-3T3 fibroblast cytotoxicity, dose response, cytotoxicity control, cell-based, fluorescence, Alamar Blue, secondary assay (AID 2327); assay type: functional;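 further: NIH-3T3 mouse fibroblasts cultured with fluconazole at 8 µg/mL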
[4] = tested on: INS1; experiment: INS-1E survival protection against cytokine death – cell-based, luminescence, retest, dose response (AID 449756); assay type: functional; details: Rattus norvegicus;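 further: cell death triggered by IL-1 beta plus TNF-alpha plus IFN-gamma mixture; protective hits raise ATP signal compared with cytokine alone wells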
[5] = cells; assay type: functional, cell-based
[6] = cells; assay type: functional, cell-based; remark: listed apart in the source
[7] = molecular target: T1, Aminopeptidase N (Plasmodium falciparum FcB1/Columbia, UniProt O96935); experiment: malaria alanyl aminopeptidase activity blockers – biochemical, fluorogenic H-Leu-NHMec substrate, 1536-well (AID 1445); parameters: species or system Plasmodium falciparum 3D7, 3D7
T1 sequence (O96935 whole entry): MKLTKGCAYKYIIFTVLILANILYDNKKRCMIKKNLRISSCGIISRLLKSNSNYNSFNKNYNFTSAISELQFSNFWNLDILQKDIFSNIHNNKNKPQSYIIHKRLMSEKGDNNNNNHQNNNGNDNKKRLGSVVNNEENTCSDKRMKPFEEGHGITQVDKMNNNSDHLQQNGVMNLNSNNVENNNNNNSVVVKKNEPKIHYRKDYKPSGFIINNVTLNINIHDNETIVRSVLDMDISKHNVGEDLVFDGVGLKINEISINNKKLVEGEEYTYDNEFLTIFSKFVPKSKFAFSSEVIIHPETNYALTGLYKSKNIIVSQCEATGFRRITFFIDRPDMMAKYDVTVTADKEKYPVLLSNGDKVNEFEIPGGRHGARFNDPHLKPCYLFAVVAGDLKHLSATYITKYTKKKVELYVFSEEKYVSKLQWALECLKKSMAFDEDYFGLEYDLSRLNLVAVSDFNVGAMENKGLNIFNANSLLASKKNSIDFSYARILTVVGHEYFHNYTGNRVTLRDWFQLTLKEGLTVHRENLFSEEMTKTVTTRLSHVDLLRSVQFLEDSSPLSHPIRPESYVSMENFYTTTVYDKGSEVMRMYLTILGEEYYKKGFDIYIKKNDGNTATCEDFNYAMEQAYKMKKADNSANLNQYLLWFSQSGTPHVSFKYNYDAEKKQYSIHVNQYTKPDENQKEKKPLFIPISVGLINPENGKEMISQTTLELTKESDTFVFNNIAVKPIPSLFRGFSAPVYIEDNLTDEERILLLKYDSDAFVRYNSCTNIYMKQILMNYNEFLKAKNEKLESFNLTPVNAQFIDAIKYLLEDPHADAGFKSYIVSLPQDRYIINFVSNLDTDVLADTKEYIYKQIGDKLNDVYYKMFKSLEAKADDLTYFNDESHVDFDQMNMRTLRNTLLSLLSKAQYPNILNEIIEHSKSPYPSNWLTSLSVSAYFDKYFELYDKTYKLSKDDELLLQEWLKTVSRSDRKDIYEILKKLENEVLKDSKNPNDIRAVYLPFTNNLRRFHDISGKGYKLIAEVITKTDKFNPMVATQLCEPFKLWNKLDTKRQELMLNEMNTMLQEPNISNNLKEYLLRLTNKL

[8] = fluconazole-exposed Candida albicans growth modulators – fluorescence, retest, confirmation (AID 2467); assay type: functional, cell-based
[9] = tested on: Streptococcus; experiment: GAS UMAA2166 growth inhibition – luminescence, BacTiterGlo, counter-screen for streptokinase expression inhibitor project, dose response (AID 1915); assay type: functional, organism-based;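 further: potency for reduction of bacterial viability or growth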
[10] = tested on: Streptococcus sp. 'group A'; experiment: Streptococcus pyogenes SK(-)GAS viability under kanamycin – luminescence, BacTiterGlo, confirmation, counter-screen for streptokinase expression inhibitor project, dose response (AID 1900); assay type: functional, organism-based
[11] = molecular target: T2, Microphthalmia-associated transcription factor (Homo sapiens, UniProt O75030); experiment: reducers of TRPM1 reporter luminescence, concentration series – cell-based, SK-MEL-5, cherry-picked, set 3, MITF inhibitor project, dose response (AID 493073); assay type: functional;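 further: SK-MEL-5 melanoma cells with luciferase driven by the MITF target TRPM1 promoter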
T2 sequence (O75030 whole entry): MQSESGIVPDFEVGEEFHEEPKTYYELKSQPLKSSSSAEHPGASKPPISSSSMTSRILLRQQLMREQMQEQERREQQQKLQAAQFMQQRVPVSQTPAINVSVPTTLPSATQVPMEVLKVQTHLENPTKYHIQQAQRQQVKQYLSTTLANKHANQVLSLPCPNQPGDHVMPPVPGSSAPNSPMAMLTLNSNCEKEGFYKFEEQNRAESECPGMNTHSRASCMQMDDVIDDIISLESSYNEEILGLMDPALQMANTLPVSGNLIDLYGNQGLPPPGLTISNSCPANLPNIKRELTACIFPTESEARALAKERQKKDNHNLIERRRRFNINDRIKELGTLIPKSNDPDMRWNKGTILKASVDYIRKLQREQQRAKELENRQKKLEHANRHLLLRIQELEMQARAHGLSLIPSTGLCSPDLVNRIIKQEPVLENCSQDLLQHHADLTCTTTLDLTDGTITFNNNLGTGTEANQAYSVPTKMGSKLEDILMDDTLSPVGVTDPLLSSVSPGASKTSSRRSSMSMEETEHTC

[12] = tested on: H9c2; experiment: cells; assay type: functional, cell-based; details: Rattus norvegicus, H9c2, Myocardium;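 further: confirmatory concentration-response retest of ultra-high-throughput screening hits for modulation of myocardial damage; cell death induced by hydrogen peroxide oxidative stress; compound pretreatment for 60 min then peroxide exposure for 2 h; potency is for protecting the cells against peroxide damage rather than for killing them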
[13] = molecular target: Albumin (Bos taurus, UniProt P02769); experiment: Counterscreen for inhibitors of T-cell receptor (TCR)-CD3 interaction: Fluorescence-based biochemical high throughput dose response assay to identify inhibitors of T-cell receptor (TCR)-CD3 interaction using a TAMRA-labeled BSA probe.; assay type: functional
[14] = tested on: BJ; experiment: BJ-TERT fibroblast viability loss – cell-based, RAS-independent, luminescence, dose response (AID 1933); assay type: functional; details: Homo sapiens
[15] = tested on: Vero; experiment: cells; assay type: functional; details: Chlorocebus sabaeus
[16] = DRD fibroblast viability loss – cell-based, non-viral oncogenic, luminescence, dose response (AID 1934); assay type: functional; details: Homo sapiens
[17] = tested on: Vero; experiment: mammalian cell viability reduction – secondary assay, cytotoxicity control for West Nile virus antiviral project, dose response (AID 1650); assay type: functional; details: Chlorocebus sabaeus
[18] = tested on: BJ; experiment: cells; assay type: functional, cell-based; details: Homo sapiens
[19] = tested on: BJ; experiment: BJ-TERT-LT-ST fibroblast viability loss – cell-based, RAS-independent, luminescence, dose response (AID 1935); assay type: functional; details: Homo sapiens;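 further: BJ fibroblasts immortalized with TERT plus LT and ST oncogenes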
[20] = tested on: Vero; experiment: cells; assay type: functional, cell-based; details: Chlorocebus sabaeus

Sequence of Albumin (P02769 whole entry): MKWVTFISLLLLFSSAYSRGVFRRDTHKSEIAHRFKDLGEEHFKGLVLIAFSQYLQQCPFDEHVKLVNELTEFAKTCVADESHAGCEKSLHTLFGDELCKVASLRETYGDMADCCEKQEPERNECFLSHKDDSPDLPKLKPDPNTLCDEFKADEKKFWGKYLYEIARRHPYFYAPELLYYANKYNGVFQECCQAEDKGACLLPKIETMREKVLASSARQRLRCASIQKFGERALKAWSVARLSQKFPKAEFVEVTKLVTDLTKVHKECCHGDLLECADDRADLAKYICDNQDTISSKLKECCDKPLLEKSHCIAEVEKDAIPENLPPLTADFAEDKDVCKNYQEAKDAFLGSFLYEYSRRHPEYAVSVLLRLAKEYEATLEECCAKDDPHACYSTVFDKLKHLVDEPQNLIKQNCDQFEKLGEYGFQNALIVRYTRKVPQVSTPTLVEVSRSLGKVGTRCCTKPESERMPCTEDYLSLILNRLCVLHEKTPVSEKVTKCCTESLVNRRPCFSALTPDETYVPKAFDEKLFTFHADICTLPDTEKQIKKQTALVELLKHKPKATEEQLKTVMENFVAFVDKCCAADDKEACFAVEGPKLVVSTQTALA

Cn1c(N=NO)nc2ccccc21
EC50 [1]: < 6 µM (inconclusive)
EC50 [2]: 0.778 µM (active)
EC50 [3]: > 150 µM (inactive)
AC50 [4]: 0.932 µM (active)
EC50 [5]: > 350 µM (not active)
EC50 [6]: 11.3 µM (active)

Cc1nc(C)c(C(=O)N/N=C/c2cc(Br)ccc2O)s1
EC50 [3]: > 150 µM (inactive)
AC50 [4]: 2.63 µM (active)
IC50 [7]: 12.9 µM (active)
EC50 [8]: 1.34 µM (active)
EC50 [9]: 8.73 µM (active)
EC50 [10]: 2.35 µM (active)
EC50 [5]: > 350 µM (not active)
EC50 [6]: 99.3 µM (active)
AC50 [11]: 3.66 µM (active)

O=C(CSc1nnc(-c2ccccc2)n1Cc1ccccc1)NNC(=O)c1ccccc1O
IC50 [12]: 33.7 µM (inactive)
IC50 [13]: > 94.1 µM (inactive)

CCc1cc(C(=O)N2CCc3c([nH]c4ccccc34)C2c2ccc(OC)cc2F)no1 (stereo not given)
EC50 [14]: 28.3 µM (active)
CC50 [15]: 20 µM (active)
EC50 [16]: > 150 µM (inconclusive)
CC50 [17]: 24.4 µM (active)
EC50 [18]: > 150 µM (not active)
EC50 [19]: > 150 µM (not active)
IC50 [20]: 1.74 µM (active)

Cc1ccc(CS/C(Nc2ccccc2C)=C(\C#N)C(=O)NCc2ccco2)c(C)c1
CC50 [17]: 15.2 µM (active)
